Laboratory results reported in patent publication US20070026478A1, “Hemiasterlin affinity probes and their uses” (WYETH, priority 2002, published 2007).
Like-named read-outs stand apart in the source and are kept apart here.

Columns and labels:
bovine brain tubulin = biological target: T1, bovine brain tubulin (Bos taurus, UniProt P81947+Q6B856); assay: Reversible binding affinity assay (tubulin fluorescence)
T1 construct: MAP-rich bovine brain tubulin (99% purity), Hela cell tubulin (90% purity); purchased Cytoskeleton (Denver, Colo.); host or cells: bovine brain
T1 sequence (P81947 whole entry): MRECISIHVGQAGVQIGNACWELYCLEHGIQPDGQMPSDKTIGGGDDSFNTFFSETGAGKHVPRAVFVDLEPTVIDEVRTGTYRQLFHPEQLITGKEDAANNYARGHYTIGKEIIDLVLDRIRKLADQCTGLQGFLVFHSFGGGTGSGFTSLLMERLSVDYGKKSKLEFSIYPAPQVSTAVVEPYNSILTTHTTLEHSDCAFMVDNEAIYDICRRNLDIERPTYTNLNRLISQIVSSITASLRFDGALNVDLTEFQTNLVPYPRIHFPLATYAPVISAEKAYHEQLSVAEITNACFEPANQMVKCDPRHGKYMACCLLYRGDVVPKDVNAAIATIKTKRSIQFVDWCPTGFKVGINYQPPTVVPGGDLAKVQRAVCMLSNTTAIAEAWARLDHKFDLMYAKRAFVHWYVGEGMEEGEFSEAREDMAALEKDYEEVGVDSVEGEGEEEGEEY
T1 sequence (Q6B856 whole entry): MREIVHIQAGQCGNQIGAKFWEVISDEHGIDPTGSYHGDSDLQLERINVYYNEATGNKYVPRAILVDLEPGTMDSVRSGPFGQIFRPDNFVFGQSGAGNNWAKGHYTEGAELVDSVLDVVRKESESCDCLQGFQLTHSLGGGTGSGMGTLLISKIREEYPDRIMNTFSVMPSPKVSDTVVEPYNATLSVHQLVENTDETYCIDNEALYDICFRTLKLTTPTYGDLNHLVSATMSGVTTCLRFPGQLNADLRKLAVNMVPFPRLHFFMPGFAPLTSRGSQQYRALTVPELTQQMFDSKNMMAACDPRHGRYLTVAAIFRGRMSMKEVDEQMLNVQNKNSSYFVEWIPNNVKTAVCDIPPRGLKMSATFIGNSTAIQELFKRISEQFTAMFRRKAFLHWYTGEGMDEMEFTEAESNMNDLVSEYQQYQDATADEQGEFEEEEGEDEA
Protocol: The affinity of both HTI-286 and of non-radiolabled Probe 1 and Probe 2, to bovine brain tubulin was determined by previously published methods (Krishnamurthy et al., Biochem., submitted). Briefly, 5 mg/mL […] tubulin prepared in PEM buffer was pre-incubated with buffer or varying concentrations of test agents in individual quartz cuvettes. The intrinsic tryptophan fluorescence of tubulin (excitation at 560 nm and maximal emission at 580 nm) was measured after pre-incubation for 90 minutes. The change in fluorescence intensity at 580 nm in the presence of compound was fitted to a quadratic equation to obtain apparent dissociation constants (KD) of the test agents.

KB cells = assay: Cell proliferation assay in tissue culture (SRB); assay type: cell-based; conditions: Homo sapiens, KB, 72 h
Protocol: Cell proliferation studies were performed according to procedures described by Loganzo et al. (Cancer Res. 2003, 63:1838-1845). Briefly, KB cells were plated in 96-well plates in 100 μL media at densities pre-determined to produce 60-90% confluence at the time of analysis. Compounds, which were serially diluted into media as 2× stocks, were added to cells in duplicate. After 72 hours of incubation, cell survival was assayed by the SRB assay as described (Rabindran et al., C. Cancer Res. 1998, 58:5850-5858). IC50 values (i.e. the concentration of drug needed to inhibit cell growth by 50%) were used to evaluate drug potency.

## CN[C@H](C(=O)N[C@H](C(=O)N(C)[C@H](/C=C(\C)C(=O)O)C(C)C)C(C)(C)C)C(C)(C)c1ccc(C(=O)c2ccccc2)cc1 [Probe 1, 4-benzoyl-N,β,β-trimethyl-L-phenylalanyl-N^1-[(1S,2E)-3-carboxy-1-isopropylbut-2-enyl]-N^1,3-dimethyl-L-valinamide]
Bovine brain tubulin; Table 1, binding to bovine brain tubulin, read-out: KD
  Kd: 200 to 800 nM
Bovine brain tubulin; rhodamine-labeled tubulin, 90 minutes pre-incubation, read-out: apparent binding constant (KD), fluorescence method
  Kd: 500 nM
KB cells
  IC50: 1.8 nM
